These results are taken from patent US20240116922A1, “IMIDAZO[1,2-A]PYRIDINE DERIVATIVES AS IRAK4 INHIBITORS AND THEIR USE IN THE TREATMENT OF DISEASE” (BIOGEN MA INC., priority 2020, published 2024).

Data set [1] is described as follows: Kinetic solubility assay (CLND), pH 6.8. It counts as physicochemical. The following applies: potassium phosphate buffer pH 6.8, 2% DMSO, 24 hours at ambient temperature; for solubility kinetic at 24 h: aqueous buffer, kinetic from dmso stock.
The next data set deals with MDR1 (Homo sapiens (Human), UniProt P08183). In words: in vitro. The settings on record: MDCK-MDR1.
Sequence of MDR1 (P08183 whole entry): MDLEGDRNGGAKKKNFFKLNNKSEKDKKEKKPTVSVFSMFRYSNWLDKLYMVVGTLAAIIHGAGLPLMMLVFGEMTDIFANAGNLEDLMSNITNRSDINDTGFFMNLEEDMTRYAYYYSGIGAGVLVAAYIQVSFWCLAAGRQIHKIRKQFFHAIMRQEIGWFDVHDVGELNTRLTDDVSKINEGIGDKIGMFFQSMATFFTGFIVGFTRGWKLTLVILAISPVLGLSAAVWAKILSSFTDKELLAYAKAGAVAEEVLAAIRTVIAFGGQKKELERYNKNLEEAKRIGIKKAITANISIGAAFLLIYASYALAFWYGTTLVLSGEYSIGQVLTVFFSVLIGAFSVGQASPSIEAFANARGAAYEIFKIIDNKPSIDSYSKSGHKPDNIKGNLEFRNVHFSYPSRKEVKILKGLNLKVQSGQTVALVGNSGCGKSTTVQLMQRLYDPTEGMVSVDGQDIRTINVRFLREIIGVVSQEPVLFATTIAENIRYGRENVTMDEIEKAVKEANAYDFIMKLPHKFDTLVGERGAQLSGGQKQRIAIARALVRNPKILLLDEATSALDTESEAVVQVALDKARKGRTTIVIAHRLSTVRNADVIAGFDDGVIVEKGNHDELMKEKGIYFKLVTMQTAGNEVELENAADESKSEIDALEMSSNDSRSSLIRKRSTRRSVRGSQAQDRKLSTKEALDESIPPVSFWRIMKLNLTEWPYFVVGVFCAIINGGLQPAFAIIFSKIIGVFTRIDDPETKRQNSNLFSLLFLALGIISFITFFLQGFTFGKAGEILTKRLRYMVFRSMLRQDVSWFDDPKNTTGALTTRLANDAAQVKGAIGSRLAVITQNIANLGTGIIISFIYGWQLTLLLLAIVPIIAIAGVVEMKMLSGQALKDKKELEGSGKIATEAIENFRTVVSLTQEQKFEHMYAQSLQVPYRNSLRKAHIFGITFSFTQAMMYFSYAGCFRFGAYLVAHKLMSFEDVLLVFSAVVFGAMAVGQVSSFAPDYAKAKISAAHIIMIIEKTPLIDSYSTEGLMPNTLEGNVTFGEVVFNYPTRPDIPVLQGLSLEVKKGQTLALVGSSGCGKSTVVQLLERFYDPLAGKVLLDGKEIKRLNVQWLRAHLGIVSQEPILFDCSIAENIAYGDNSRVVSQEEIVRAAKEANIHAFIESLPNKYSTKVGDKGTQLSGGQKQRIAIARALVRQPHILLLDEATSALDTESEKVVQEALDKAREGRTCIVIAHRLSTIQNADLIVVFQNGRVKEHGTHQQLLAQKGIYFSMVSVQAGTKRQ
In the next data set the target is IRAK4 (Homo sapiens (Human), UniProt Q9NWZ3). In words: IRAK4 MSD biochemical assay (2-hour 1 mM ATP). The following applies: 0.1 nM IRAK4, 1 mM ATP, 2 hour at room temperature.
Sequence of IRAK4 (Q9NWZ3 whole entry): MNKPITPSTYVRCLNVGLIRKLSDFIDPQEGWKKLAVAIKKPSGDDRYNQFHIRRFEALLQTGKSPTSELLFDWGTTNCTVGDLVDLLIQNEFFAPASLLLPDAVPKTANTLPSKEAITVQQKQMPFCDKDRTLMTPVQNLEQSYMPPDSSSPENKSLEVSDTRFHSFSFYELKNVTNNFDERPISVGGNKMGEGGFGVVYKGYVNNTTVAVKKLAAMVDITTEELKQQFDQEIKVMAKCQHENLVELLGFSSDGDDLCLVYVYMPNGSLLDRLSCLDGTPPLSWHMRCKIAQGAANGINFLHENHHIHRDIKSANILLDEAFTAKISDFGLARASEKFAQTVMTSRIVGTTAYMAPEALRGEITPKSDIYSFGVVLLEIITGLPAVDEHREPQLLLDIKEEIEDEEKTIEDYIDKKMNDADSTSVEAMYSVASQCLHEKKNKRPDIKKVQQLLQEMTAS

Values after ≈ are worked out from the molar mass of the structure shown.

As for `CC(C)Oc1nc2nc(C34COC(C3)C4)cn2cc1C(=O)Nc1cccn([C@@H]2C[C@@H]2F)c1=O` (racemic) [Example 87, (rac)-Cis-2-(2-oxabicyclo[2.1.1]hexan-4-yl)-N-(1-(2-fluorocyclopropyl)-2-oxo-1,2-dihydropyridin-3-yl)-7-isopropoxyimidazo[1,2-a]pyrimidine-6-carboxamide], in data set [1], the solubility (kinetic) at 24 h was 48.4 µg/mL (≈ 107 µM). Turning to `COCC12CC(c3cn4cc(C(=O)Nc5cccn([C@@H]6C[C@@H]6F)c5=O)c(OC(C)C)nc4n3)(CO1)C2` [Example 162, N-(1-((1R,2S)-2-fluorocyclopropyl)-2-oxo-1,2-dihydropyridin-3-yl)-7-isopropoxy-2-(1-(methoxymethyl)-2-oxabicyclo[2.1.1]hexan-4-yl)imidazo[1,2-a]pyrimidine-6-carboxamide], on MDR1, the efflux ratio at 120 min, 1 μM amounted to 38.2. In turn, `COCC12CC(c3cn4cc(C(=O)Nc5cccn([C@H]6C[C@H]6F)c5=O)c(OC(C)C)nc4n3)(CO1)C2` [Example 163, N-(1-((1S,2R)-2-fluorocyclopropyl)-2-oxo-1,2-dihydropyridin-3-yl)-7-isopropoxy-2-(1-(methoxymethyl)-2-oxabicyclo[2.1.1]hexan-4-yl)imidazo[1,2-a]pyrimidine-6-carboxamide] returned a kinetic solubility at 24 h in data set [1] of 66 µg/mL (≈ 133 µM). As for `CC(C)Oc1cc2nc(C34COC(C)(C3)C4)cn2cc1C(=O)Nc1cccn([C@H]2C[C@@H]2C)c1=O` [Example 140, 7-isopropoxy-2-(1-methyl-2-oxabicyclo[2.1.1]hexan-4-yl)-N-(1-((1S,2S)-2-methylcyclopropyl)-2-oxo-1,2-dihydropyridin-3-yl)imidazo[1,2-a]pyridine-6-carboxamide], at IRAK4, the 50% inhibitory concentration (IC50) is 1.1 nM. On to `CC(C)Oc1nc2nc([C@@]34CC[C@@](C)(C3)OC4)cn2cc1C(=O)Nc1cccn([C@@H]2C[C@H]2F)c1=O` (single isomer, unassigned) [Example 122], for which the kinetic solubility at 24 h in data set [1] is 48.8 µg/mL (≈ 101 µM). Same read-out and setting: with `CC(C)Oc1nc2nc([C@@]34CC[C@@](C)(C3)OC4)cn2cc1C(=O)Nc1cccn([C@H]2C[C@@H]2F)c1=O` (single isomer, unassigned) [Example 123] the figure was 73 µg/mL (≈ 152 µM). At IRAK4, `CC12CC(c3cn4cc(C(=O)Nc5cccn([C@@H]6C[C@@H]6F)c5=O)c(OC5CC5)cc4n3)(CO1)C2` (single isomer, unassigned) [Example 174] showed an IC50 of 37.5 nM. For the compound `CC(C)Oc1nc2nc([C@]34CC[C@](CF)(C3)OC4)cn2cc1C(=O)Nc1cccn(C2CC2)c1=O` (single isomer, unassigned) [Example 47], the kinetic solubility at 24 h in data set [1] is 9 µg/mL (≈ 18.7 µM).

The compound `CC(C)Oc1cc2nc(C34COC(C)(C3)C4)cn2cc1C(=O)Nc1ccnn(C2CC2)c1=O` [Example 76] returned a kinetic solubility at 24 h in data set [1] of 50.9 µg/mL (≈ 113 µM). In addition, the efflux ratio at 120 min, 1 μM at MDR1 is 3.6. `CC(C)Oc1nc2nc(C34COC(C3)C4)cn2cc1C(=O)Nc1cccn([C@@H]2C[C@@H]2F)c1=O` (single isomer, unassigned) [Example 88]: the kinetic solubility at 24 h in data set [1] is 20.7 µg/mL (≈ 45.6 µM). `Cc1cnc2c(NC(=O)c3cn4cc([C@@]56CC[C@@](C)(C5)OC6)nc4nc3OC(C)C)cnn2c1` (single isomer, unassigned) [Comparator 4B, reference compound] registered a kinetic solubility at 24 h in data set [1] of 2 µg/mL (≈ 4.33 µM). For the same compound, on MDR1, the efflux ratio at 120 min, 1 μM came out at 2.3. Regarding `CC(C)Oc1cc2nc([C@@]34CC[C@@](C)(C3)OC4)cn2cc1C(=O)Nc1cccn([C@@H]2C[C@@H]2F)c1=O` (single isomer, unassigned) [Example 168], on IRAK4, the IC50 was found to be 7.5 nM. In the case of `CCC12CC(c3cn4cc(C(=O)Nc5cccn(C6CC6)c5=O)c(OC(C)C)nc4n3)(CO1)C2` [Example 31], in data set [1], the kinetic solubility at 24 h is 24.2 µg/mL (≈ 52.2 µM). The compound `CC(C)Oc1nc2nc(C34CCC(C)(CC3)OC4)cn2cc1C(=O)Nc1cccc(C(F)F)n1` [Comparator 5A, N-(6-(difluoromethyl)pyridin-2-yl)-7-isopropoxy-2-(1-methyl-2-oxabicyclo[2.2.2]octan-4-yl)imidazo[1,2-a]pyrimidine-6-carboxamide, reference compound] returned a solubility (kinetic) at 24 h in data set [1] of 1.5 µg/mL (≈ 3.18 µM). Further, the efflux ratio at 120 min, 1 μM on MDR1 turned out to be 1. Compound `CC[C@H](C)Oc1cc2nc(C34COC(C)(C3)C4)cn2cc1C(=O)Nc1cccn(C2CC2F)c1=O` (mixture of isomers) [Example 96, 7-((S)-sec-butoxy)-N-(1-cis-(2-fluorocyclopropyl)-2-oxo-1,2-dihydropyridin-3-yl)-2-(1-methyl-2-oxabicyclo[2.1.1]hexan-4-yl)imidazo[1,2-a]pyridine-6-carboxamide] returned a solubility (kinetic) at 24 h in data set [1] of 75.7 µg/mL. Also, the efflux ratio at 120 min, 1 μM on MDR1 turned out to be 10.4. On to `CC(C)Oc1nc2nc([C@]34CC[C@](C)(C3)OC4)cn2cc1C(=O)Nc1cccn(C2CC2)c1=O` (single isomer, unassigned) [Example 13], for which, in data set [1], the solubility (kinetic) at 24 h worked out at 20.3 µg/mL (≈ 43.8 µM). As for `CC(C)Oc1nc2nc(C34CCC(CF)(C3)OC4)cn2cc1C(=O)Nc1cccn(C2CC2)c1=O` (centres unmarked) [Example 45, N-(1-cyclopropyl-2-oxo-1,2-dihydropyridin-3-yl)-2-(1-(fluoromethyl)-2-oxabicyclo[2.2.1]heptan-4-yl)-7-isopropoxyimidazo[1,2-a]pyrimidine-6-carboxamide], in data set [1], the solubility (kinetic) at 24 h was found to be 6.8 µg/mL (≈ 14.1 µM). With `CC(C)Oc1c(C(=O)Nc2cccn([C@@H]3C[C@@H]3F)c2=O)cn2cc(C34COC(C)(C3)C4)nc2c1F` (single isomer, unassigned) [Example 92], inhibition at IRAK4 was half-maximal at 61 nM (IC50).

With `CC(C)Oc1nc2nc(C34COC(C)(C3)C4)cn2cc1C(=O)Nc1cccn(C2C[C@]2(C)C(F)F)c1=O` (stereo partly drawn) [Example 144, N-(1-((1S,2S)-2-(difluoromethyl)-2-methylcyclopropyl)-2-oxo-1,2-dihydropyridin-3-yl)-7-isopropoxy-2-(1-methyl-2-oxabicyclo[2.1.1]hexan-4-yl)imidazo[1,2-a]pyrimidine-6-carboxamide], the kinetic solubility at 24 h in data set [1] is 34.4 µg/mL (≈ 67 µM).

With `Cc1cnc2c(NC(=O)c3cn4cc(C56CCC(C)(CC5)OC6)nc4cc3OC(C)C)cnn2c1` [Comparator 5B, 7-isopropoxy-2-(1-methyl-2-oxabicyclo[2.2.2]octan-4-yl)-N-(6-methylpyrazolo[1,5-a]pyrimidin-3-yl)imidazo[1,2-a]pyridine-6-carboxamide, reference compound], the kinetic solubility at 24 h in data set [1] was 5.2 µg/mL (≈ 11 µM). Moreover, at MDR1, the efflux ratio at 120 min, 1 μM is 1.4. In the case of `CC[C@H](C)Oc1nc2nc(C34COC(C)(C3)C4)cn2cc1C(=O)Nc1cccn([C@@H]2C[C@@H]2F)c1=O` (mixture of isomers) [Example 42, 7-((S)-sec-butoxy)-N-(1-(cis-2-fluorocyclopropyl)-2-oxo-1,2-dihydropyridin-3-yl)-2-(1-methyl-2-oxabicyclo[2.1.1]hexan-4-yl)imidazo[1,2-a]pyrimidine-6-carboxamide], the solubility (kinetic) at 24 h in data set [1] amounted to 72.5 µg/mL. The efflux ratio at 120 min, 1 μM at MDR1 is 10.8.

Consider `CC(C)Oc1nc2nc(C34COC(C)(C3)C4)cn2cc1C(=O)Nc1cccn([C@@H]2C[C@H]2C)c1=O` (racemic) [Example 95, (rac)-trans-7-isopropoxy-2-(1-methyl-2-oxabicyclo[2.1.1]hexan-4-yl)-N-(1-(2-methylcyclopropyl)-2-oxo-1,2-dihydropyridin-3-yl)imidazo[1,2-a]pyrimidine-6-carboxamide], for which the solubility (kinetic) at 24 h in data set [1] is 35.3 µg/mL (≈ 76.2 µM). Regarding `COC[C@]12C[C@](c3cn4cc(C(=O)Nc5cccn(C6CC6F)c5=O)c(OC(C)C)nc4n3)(CO1)C2` (mixture of isomers) [Example 90, (rac)-Cis-N-(1-(2-fluorocyclopropyl)-2-oxo-1,2-dihydropyridin-3-yl)-7-isopropoxy-2-(1-(methoxymethyl)-2-oxabicyclo[2.1.1]hexan-4-yl)imidazo[1,2-a]pyrimidine-6-carboxamide], in data set [1], the “pH 6.8 Solubility (ug/mL)” value was found to be 74.8 ug/mL.

On to `CC(C)Oc1nc2nc(C34COC(C3)C4)cn2cc1C(=O)Nc1cccn([C@H]2C[C@H]2F)c1=O` (single isomer, unassigned) [Example 89], for which the kinetic solubility at 24 h in data set [1] stood at 23.9 µg/mL (≈ 52.7 µM).

`CC(C)Oc1nc2nc([C@]34CC[C@](C)(C3)OC4)cn2cc1C(=O)Nc1cccn([C@@H]2C[C@H]2F)c1=O` (single isomer, unassigned) [Example 120]: in data set [1], the solubility (kinetic) at 24 h came to 76.7 µg/mL (≈ 159 µM).

As for `CC(C)Oc1cc2nc(C34COC(C)(C3)C4)cn2cc1C(=O)Nc1cccn([C@@H]2C[C@H]2F)c1=O` (single isomer, unassigned) [Example 154], the solubility (kinetic) at 24 h in data set [1] amounted to 37.2 µg/mL (≈ 79.7 µM). On the same count and under the same terms, with `CC(C)Oc1nc2nc(C34COC(C)(C3)C4)cn2cc1C(=O)Nc1cccn([C@@H]2C[C@H]2C)c1=O` (single isomer, unassigned) [Example 156] the figure was 62.8 µg/mL (≈ 135 µM). On the same count and under the same terms, with `CC(C)Oc1nc2nc([C@]34CC[C@](C)(C3)OC4)cn2cc1C(=O)Nc1cccn([C@H]2C[C@@H]2F)c1=O` (single isomer, unassigned) [Example 121] the figure was 33.9 µg/mL (≈ 70.4 µM); with `CC(C)Oc1cc2nc(C34COC(C)(C3)C4)cn2cc1C(=O)Nc1cccn([C@@H]2C[C@@H]2F)c1=O` (racemic) [Example 97, (rac)-Cis-N-(1-(2-fluorocyclopropyl)-2-oxo-1,2-dihydropyridin-3-yl)-7-isopropoxy-2-(1-methyl-2-oxabicyclo[2.1.1]hexan-4-yl)imidazo[1,2-a]pyridine-6-carboxamide], 59.5 µg/mL (≈ 128 µM).

In turn, `CC(C)Oc1cc2nc([C@]34CC[C@](C)(C3)OC4)cn2cc1C(=O)Nc1cccc(C(F)F)n1` (single isomer, unassigned) [Comparator 3A, reference compound] displayed a kinetic solubility at 24 h in data set [1] of 0.8 µg/mL (≈ 1.75 µM). In addition, the efflux ratio at 120 min, 1 μM at MDR1 was found to be 0.7. Compound `CC(C)Oc1nc2nc(C34COC(C)(C3)C4)cn2cc1C(=O)Nc1ccnn(C2CC2)c1=O` [Example 71, N-(2-cyclopropyl-3-oxo-2,3-dihydropyridazin-4-yl)-7-isopropoxy-2-(1-methyl-2-oxabicyclo[2.1.1]hexan-4-yl)imidazo[1,2-a]pyrimidine-6-carboxamide] gave a kinetic solubility at 24 h in data set [1] of 8.9 µg/mL (≈ 19.8 µM).
